Reference: US20220354963A1, “EXTRACELLULAR VESICLE LINKED TO MOLECULES AND USES THEREOF” (Codiak BioSciences, Inc., priority 2019, published 2022)
pIC50: −log10 of the molar value.

Key:
Format in all cases: cell-based, human
STAT3 mRNA [1] = experiment: STAT3 mRNA expression in IL-6 stimulated PANC-1 cells, branched DNA assay; conditions: for STAT3 Inhibition 2 nM / STAT3 Inhibition 20 nM: 2 point DR data; for pIC50: 5 point DR data, Lipofectamine2000 transfection, 48 hr, read-out: STAT3 PANC1 IC50 Prism
Procedure: (§1) The ASOs of the present disclosure were tested for their ability to reduce STAT3 mRNA expression in IL-6 stimulated PANC-1 cells. The PANC-1 cells were grown in cell culture media and seeded onto a 96 well plate at a density of 20,000 cells/well. ASOs were tested in two separate cohorts: 2 doses or 5 doses were given to the PANC-1 cells (See TABLE 3) at final concentrations of 20 nM and 2 nM, respectively. The assay used Lipofectamine2000 transfection and a 48 hr treatment cycle, with incubation at 37° C. and 5% C02. Analysis of the mRNA expression was then carried out using a branched DNA assay.

GAPDH [2] = experiment: GAPDH inhibition in PANC-1 cells, same assay; conditions: 2 point DR data
Procedure: as §1, with “The” for “The ASOs of the present disclosure were tested for their ability to reduce STAT3 mRNA expression in IL-6 stimulated PANC-1 cells. The”

STAT3 mRNA [3] = experiment: STAT3 mRNA expression in IL-6 stimulated PANC-1 cells, branched DNA assay; conditions: 5 point DR data
GAPDH [4] = experiment: GAPDH inhibition in HEK-293 cells, same assay; parameters: GAPDH max inhibition: unit not given here; conditions: for 2D GAPDH 20 nM inhibition: 2D (dual-dose); for GAPDH max inhibition: Table 6
NRas mRNA = NRas mRNA expression in HEK-293 cells, branched DNA assay; parameters: NRAS max inhibition: unit not given here; conditions: for IC20 / IC50 / IC80 / max. inhib. [%]:: HEK293 cells: dose-response; for NRAS max inhibition: Table 6
Procedure: as §1, with “NRas” for “STAT3”, “HEK-293” for “IL-6 stimulated PANC-1”, “HEK-293” for “PANC-1”, “TABLES 4, 5 and 6)” for “TABLE 3)”, “nM” for “nM,”

| Substance | STAT3 Inhibition 2 nM (STAT3 mRNA [1]) | STAT3 Inhibition 20 nM (STAT3 mRNA [1]) | pIC50 (STAT3 mRNA [1]) | GAPDH Inhibition 20 nM (GAPDH [2]) | STAT3 Max inihibition 24 nM (STAT3 mRNA [3]) | 2D GAPDH 20 nM inhibition (GAPDH [4]) | GAPDH max inhibition (GAPDH [4]) | IC20 (NRas mRNA) [nM] | IC50 (NRas mRNA) [nM] | IC80 (NRas mRNA) [nM] | max. inhib. [%]: (NRas mRNA) [%] | NRAS max inhibition (NRas mRNA) |
| --- | --- | --- | --- | --- | --- | --- | --- | --- | --- | --- | --- | --- |
| 131 (AGTCGTGTGTAGCGTTTGTT; chemistry not given here) [compound 131] | 58.9 | 90.7 | 8.55 | 12.00 | 75.20 |  |  |  |  |  |  |  |
| 126 (TGGAATCTGCTTCTCACGTA; chemistry not given here) [compound 126] | 61.4 | 90.7 | 8.56 | 13.00 | 87.71 |  |  |  |  |  |  |  |
| 145 (GTCCTATGTGCTCGTCAAAG; chemistry not given here) [compound 145] | 50.2 | 89.2 | 8.51 | 17.00 | 85.73 |  |  |  |  |  |  |  |
| 115 (CTGTTGATCGCAGCGAAGAT; chemistry not given here) [compound 115] | 65.2 | 90.8 | 9.10 | 3.00 | 78.99 |  |  |  |  |  |  |  |
| 137 (ATCTTAATGGGACTCACGGG; chemistry not given here) [compound 137] | 53.0 | 87.4 | 8.74 | −2.00 | 79.46 |  |  |  |  |  |  |  |
| 125 (CACGTACTTTCTGTACTTCT; chemistry not given here) [compound 125] | 61.7 | 85.1 | 8.64 | 14.00 | 81.67 |  |  |  |  |  |  |  |
| 128 (ACCCAGACGGGCATTCCTGT; chemistry not given here) [compound 128] | 61.1 | 81.1 | 8.45 | 19.00 | 79.56 |  |  |  |  |  |  |  |
| 133 (GCAGTCGTGTGTAGCGTTTG; chemistry not given here) [compound 133] | 55.9 | 90.7 | 8.65 | 14.00 | 81.73 |  |  |  |  |  |  |  |
| 116 (CTCCTGTTGATCGCAGCGAA; chemistry not given here) [compound 116] | 64.5 | 85.5 | 8.73 | 16.00 | 69.78 |  |  |  |  |  |  |  |
| 142 (GGCAGCAGCTCATGATCAGG; chemistry not given here) [compound 142] | 51.7 | 80.0 | 8.17 | 9.00 | 76.10 |  |  |  |  |  |  |  |
| 124 (ATAGAGATTCTCGAAAGGTA; chemistry not given here) [compound 124] | 62.6 | 83.3 | 8.80 | 13.00 | 86.46 |  |  |  |  |  |  |  |
| 114 (GTTGATCGCAGCGAAGATCC; chemistry not given here) [compound 114] | 66.4 | 87.0 | 9.09 | 10.00 | 84.94 |  |  |  |  |  |  |  |
| 134 (CGCAGTCGTGTGTAGCGTTT; chemistry not given here) [compound 134] | 54.3 | 82.8 | 8.67 | 10.00 | 77.94 |  |  |  |  |  |  |  |
| 130 (TGTAGCGTTTGTTGAGGCTC; chemistry not given here) [compound 130] | 59.3 | 80.7 | 8.78 | 13.00 | 72.16 |  |  |  |  |  |  |  |
| 112 (GCGAAGATCCACACGGCCAT; chemistry not given here) [compound 112] | 70.0 | 91.0 | 8.98 | −25.00 | 86.32 |  |  |  |  |  |  |  |
| 254 (GCCAAACAGCGTAAC; chemistry not given here) [compound 254] |  |  |  |  |  | 20.10 | 32.96 | 0.067 | 0.336 | 2.11 | 93.4 | 96.11 |
| 139 (ACTCCATCTTAATGGGACTC; chemistry not given here) [compound 139] | 52.8 | 83.4 | 8.40 | 10.00 | 72.50 |  |  |  |  |  |  |  |
| 135 (ACGTCTTGGTCTTGCCGATG; chemistry not given here) [compound 135] | 53.9 | 84.2 | 8.98 | 4.00 | 78.59 |  |  |  |  |  |  |  |
| 253 (CGGCCAAACAGCGTAAC; chemistry not given here) [compound 253] |  |  |  |  |  | 40.44 | 29.34 | 0.108 | 0.461 | 2.79 | 90.4 | 94.40 |
| 218 (GTTACGCTGTTTGGCCG; chemistry not given here) [compound 218] |  |  |  |  |  | 28.11 | 25.71 | 0.139 | 0.427 | 1.94 | 88.0 | 90.00 |
| 250 (GCCAAACAGCGTAACCCCTT; chemistry not given here) [compound 250] |  |  |  |  |  | 27.30 | 33.44 | 0.173 | 0.715 | 5.68 | 86.3 | 88.02 |
| SEQ ID NO: 236: NRas ASO, starting nucleotide 421, length 20 (CCCCGAGATGTTCCCTGGTG; chemistry not given here) |  |  |  |  |  | 34.05 | 40.06 | 0.053 | 0.349 | 4.78 | 87.3 | 91.51 |
| 239 (AGGCTCCCCGAGATGTTCCC; chemistry not given here) [compound 239] |  |  |  |  |  | 39.01 | 37.62 | 0.027 | 0.159 | 1.46 | 90.4 | 94.35 |
| 227 (GTTTGGCCGGGCAGAAACTC; chemistry not given here) [compound 227] |  |  |  |  |  | 24.56 | 18.30 | 0.087 | 0.413 | 4.05 | 86.3 | 87.95 |
| 206 (GAGCCTGGTTGGAAGCTGCA; chemistry not given here) [compound 206] |  |  |  |  |  | 40.87 | 44.21 | 0.117 | 0.471 | 2.58 | 90.9 | 94.95 |
